Laboratory results: patent US5925369A, “Bis alkanoyl esters of carnitine having bactericidal, fungicidal and antiprotozoal activity” (priority 1996, dated 1999)

Columns and labels:
bacteria and fungi = conditions: bactericidal (EP-A-0 552 137) and fungicidal (EP-A-0 552 138); cited from earlier work
[1] = tested on: Tricophyton quinckeanum NCPF 309; assay: In vivo antiinfective effect on topical mixed infection in mice; set-up: species or system BALB/c mice; key to T. quinckeanum: Not cured animals (fungal growth): +++: confluent fungal growth (from a 1ml skin homogenate); ++: semiconfluent fungal growth (from a 1ml skin homogenate); +: moderate fungal growth (from a 1ml skin homogenate); conditions: for T. quinckeanum: Cured animals: 5 animals/group
Protocol: (§1) Male inbred BALB/c mice (C. RIVER), aged 6 weeks were used (5 animals per group).
(§2) The animals were topically infected with pathogenic strains of Tricophyton (Tricophyton quinckeanum NCPF 309) and Staphylococcus (Staphylococcus aureus LC1).
(§3) Suspensions of fungal microaleuriospores and bacteria were adjusted to a final concentration of 5.0×10^7 and 1.0×10^7 cells/ml, respectively. Volumes of 0.2 ml of each suspension were applied onto the upper posterior zone of the animals, which had previously been shaved and gently abraded with a scalpel blade until "glistening". Treatment started 30 hours after the inocula by administering 50 mg of each substance in a gel form (1% test article) on the infected skin once a day for 5 consecutive days. Two days following the last treatment, animals were sacrificed and infected tissue samples were collected. Following homogenization and appropriate dilution in medium, tissue samples were plated (in Mycobiotic agar and Mannitol Salt agar for fungi and bacteria, respectively) to selectively assess the growth of the pathogens. Fungal growth is evaluated by means of an arbitrary scale, while bacterial growth is evaluated by determining the CFUs (Colony Forming Units).

Gram positive bacteria = assay: MIC on Gram positive bacteria (all strains); type: cell-based
Protocol: Bacterial suspensions are prepared from an overnight culture in Mueller-Hinton broth and are adjusted, in the same medium, to a final concentration of 5.0×10^4 cells/ml in each well of a 96-well microtiter plate. Substance dilutions (0.3 log) in Mueller-Hinton broth are added to the suspensions in order to have a range of final concentrations from 0.19 to 100 mcg/ml.
Microtiters are then incubated at 37° C. for 18 hours. (See L. D. THRUPP, Susceptibility testing of antibiotics in liquid media, in: Antibiotics in laboratory medicine. V. LORIAN Ed., II edition, 4, 93-150, Williams & Wilkins, Baltimora, Md. 21202 U.S.A.).

[2] = tested on: Staphylococcus aureus LC1; assay: In vivo antiinfective effect on topical mixed infection in mice; set-up: species or system BALB/c mice; conditions: for S. aureus: Not cured animals (mean CFU/mouse) / S. aureus: Cured animals: 50 mg/day of 1% gel, topical, 5 days; for S. aureus: Cured animals: 5 animals/group; for activity on S. aureus, ST 1226 and ST 1103 compared: mixed topical infection
Protocol: as §1, §2, §3

[3] = tested on: T. mentagrophytes IDI D1049; assay: Antifungal activity in experimental Tinea pedis in the guinea-pig paw; type: in vivo, Hartley guinea-pig; conditions: for A (clinical sign score) / D (clinical sign score) / E (clinical sign score): scale 0-3; for sterile samples (%) / sterile samples (n = 30), number over total: 20 days once a day, day +31
Source text: Twelve male Hartley guinea-pig (C. RIVER), weighing 350-400 gr, have been utilized (3 animals per experimental group).
One clinical isolate (Tricophyton mentagrophytes IDI D 1049, from Immacolata Dermatological Institute of Rome) was utilized.
Microaleuriospores were first harvested by scraping from a 7-day fungal culture grown in Potato dextrose agar, and then resuspended in Sabouraud broth with 0.5% Tween 80.
After washing, the spores were standardized in sterile saline to yield a final concentration of 1.0×10^8 spores/ml.
Each group included 3 animals, and only the left hind paw was inoculated. For the 2 control groups, 3 animals in total were used, as both hind paws of each animal were inoculated.
Filter paper discs (12-mm diameter and 0.3-mm thickness) were covered with aluminum foil in the lower part to prevent the inoculum spreading. This filter was then sticked to a 1×3-cm piece of biadesive plaster, which adhered to a gauze wrapped around the paw.
The filter paper disc was then wetted with 100 μl of the infective suspension, and subsequently fixed to the guinea-pig paw.
The animal paw was tied up with bandage and plaster, and then left in these conditions for 7 days.
Seven days after infection, the infected areas were uncovered and the type of lesion was graded according to an arbitrary scale, as follows:
These "clinical" signs were examined again on days +14, +21, and +31 (day of sacrifice of animals). Three days following the first observation of the type of lesion (day +10), treatments with the differrent formulations were started, and they went on for 20 days (once a day). Two days following the last treatment (day +31), animals were sacrificed and plantar areas of the paws were dissected into 10 parts for each paw.
These sections were plated onto Mycobiotic agar supplemented with Penicillin G and Streptomicin (100 mcg/ml). Volumes of 50 μl of both antibiotics were then added to the plantar sections to prevent any bacterial growth that might interfere with the growth of T. mentagrophytes in the samples under examination.
The data obtained were expressed as the number of microbiologically sterile cutaneous sections over the total examined sections.

[4] = 50 mg/day of 1% gel, topical, 5 days

SMILES: CCCCCCCCCCCOC(=O)C[C@H](C[N+](C)(C)C)OC(=O)CC(C)C [ST 1103, isovaleryl L-carnitine undecyl ester methanesulfonate, reference compound]
- activity among the known compounds (bacteria and fungi): most active both as bactericidal and fungicidal agent
- T. quinckeanum: Not cured animals (fungal growth) [1, 4]: +
- T. quinckeanum: Cured animals [1, 4]: 80%
- MIC (Gram positive bacteria; clinical isolates, 10 strains): 3.9 µg/mL
- MIC (Gram positive bacteria; lab collection, 5 strains): 4.06 µg/mL
- S. aureus: Not cured animals (mean CFU/mouse) [2]: 40 CFU/mouse
- S. aureus: Cured animals [2]: 80%
- activity on S. aureus, ST 1226 and ST 1103 compared [2]: identical activity on S. aureus

SMILES: CCCCCCCCCCC(=O)O[C@H](CC(=O)OCc1ccc(COC(=O)C[C@H](C[N+](C)(C)C)OC(=O)CCCCCCCCCC)cc1)C[N+](C)(C)C [ST 1226, bis(undecanoyl L-carnitine chloride)p-xylilene diester]
- T. quinckeanum: Cured animals [1, 4]: 100%
- antifungal activity compared with ST 1103 ([1]; mixed topical infection): greater antinfungal activity than ST 1103
- microbiological recovery ([3]; 1% ST 1226): 80%
- A (clinical sign score) ([3]; 1%, 7th day): 0
- D (clinical sign score) ([3]; 1%, 7th day): 0
- E (clinical sign score) ([3]; 1%, 7th day): 0
- A (clinical sign score) ([3]; 1%, 14th day): 0
- D (clinical sign score) ([3]; 1%, 14th day): 0
- E (clinical sign score) ([3]; 1%, 14th day): 0
- A (clinical sign score) ([3]; 1%, 21st day): 0
- D (clinical sign score) ([3]; 1%, 21st day): 0
- E (clinical sign score) ([3]; 1%, 21st day): 0
- A (clinical sign score) ([3]; 1%, 31st day): 0
- D (clinical sign score) ([3]; 1%, 31st day): 0
- E (clinical sign score) ([3]; 1%, 31st day): 0
- sterile samples (%) ([3]; 1%): 80%
- sterile samples (n = 30), number over total ([3]; 1%): 24/30
- microbiological recovery ([3]; 1.5% ST 1226): 100%
- A (clinical sign score) ([3]; 1.5%, 7th day): 0
- D (clinical sign score) ([3]; 1.5%, 7th day): 0
- E (clinical sign score) ([3]; 1.5%, 7th day): 0
- A (clinical sign score) ([3]; 1.5%, 14th day): 0
- D (clinical sign score) ([3]; 1.5%, 14th day): 0
- E (clinical sign score) ([3]; 1.5%, 14th day): 0
- A (clinical sign score) ([3]; 1.5%, 21st day): 0
- D (clinical sign score) ([3]; 1.5%, 21st day): 0
- E (clinical sign score) ([3]; 1.5%, 21st day): 0
- A (clinical sign score) ([3]; 1.5%, 31st day): 0
- D (clinical sign score) ([3]; 1.5%, 31st day): 0
- E (clinical sign score) ([3]; 1.5%, 31st day): 0
- sterile samples (%) ([3]; 1.5%): 100%
- sterile samples (n = 30), number over total ([3]; 1.5%): 20/20
- S. aureus: Not cured animals (mean CFU/mouse) [2]: 50 CFU/mouse
- S. aureus: Cured animals [2]: 80%
- activity on S. aureus, ST 1226 and ST 1103 compared [2]: identical activity on S. aureus
